# Assay: recombinant UMI read abundance after kanamycin selection (control-corrected) (log10(CPM+1)); higher = more efficient recombination; extreme values may be limits of the assay; sequences stand for … in AGTGCAGAGAAAATCGGCCAGTTTTCTCTGCCTGCAGTCCGCATGCCGTGGGACCCCTTGGGTTCTAACCTGTTGCCTAGATTTATGCAGCGGACTGCCTTTCTCCCAAAGTGATAAACCGG…AGGTTGGTTTCACT; site = the 11-nt donor
# Summary of the method: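 Under IPTG (0.07 mM) plus kanamycin, or without selection, Escherichia coli carrying a UMI-tagged donor and donor-binding-loop pair library and a target plasmid for the IS621 bridge recombinase were plated in two replicates. Recombinant UMIs were PCR-amplified across the donor–target junction and sequenced. Counts were converted to CPM, averaged over replicates, scaled by control-derived factors and reported as log10(CPM+1).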
# 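Also: IS621 bridge recombinase in Escherichia coli cells against a fixed T5 target plasmid.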
row,Sequence,recombinant UMI read abundance (log10)
1,GAACTCACATGGACCGGTTTTCCCGGTAATCCGTATTTGAT (site GATCTCACTAT),0.263
2,GAAGAAGCATGGACCGGTTTTCCCGGTAATCCGTATTTGAG (site GAAGAAGCTCT),2.53
3,GAAGAATCATGGACCGGTTTTCCCGGTAATCCGTATTTGTT (site GAAGAATCTAA),3.34
4,GAAGAATCATGGACCGGTTTTCCCGGTAATCCGTATTTGTT (site GAAGACTCTAA),1.41
5,GAAGAATCATGGACCGGTTTTCCCGGTAATCCGTATTTGTT (site GAAGAGTCTAA),1.59
6,GAAGAATCATGGACCGGTTTTCCCGGTAATCCGTATTTGTT (site GAAGATTCTAA),0
7,GAAGACCCATGGACCGGTTTTCCCGGTAATCCGTATTTGCG (site GAAGACCCTCG),0.691
8,GAAGAGGCATGGACCGGTTTTCCCGGTAATCCGTATTTGTA (site GAAGAGGCTTA),1.64
9,GAAGATCCATGGACCGGTTTTCCCGGTAATCCGTATTTGTT (site GAAGATACTAA),0.0059
10,GAAGATCCATGGACCGGTTTTCCCGGTAATCCGTATTTGTT (site GAAGATCCTAA),1.25
11,GAAGATCCATGGACCGGTTTTCCCGGTAATCCGTATTTGTT (site GAAGATGCTAA),0.00882
12,GAAGATCCATGGACCGGTTTTCCCGGTAATCCGTATTTGTT (site GAAGATTCTAA),0.0204
13,GAAGATTCATGGACCGGTTTTCCCGGTAATCCGTATTTGAT (site GAAGATTCTAA),0.773
14,GAAGATTCATGGACCGGTTTTCCCGGTAATCCGTATTTGAT (site GAAGATTCTAC),0.00538
15,GAAGATTCATGGACCGGTTTTCCCGGTAATCCGTATTTGAT (site GAAGATTCTAG),0
16,GAAGATTCATGGACCGGTTTTCCCGGTAATCCGTATTTGAT (site GAAGATTCTAT),2.48
17,GAAGATTCATGGACCGGTTTTCCCGGTAATCCGTATTTGTG (site GAAGATTCTAA),1.55
18,GAAGATTCATGGACCGGTTTTCCCGGTAATCCGTATTTGTG (site GAAGATTCTCA),2.81
19,GAAGATTCATGGACCGGTTTTCCCGGTAATCCGTATTTGTG (site GAAGATTCTGA),0
20,GAAGATTCATGGACCGGTTTTCCCGGTAATCCGTATTTGTG (site GAAGATTCTTA),1.24
21,GAAGGACCATGGACCGGTTTTCCCGGTAATCCGTATTTGCG (site GAAGGACCTCG),0
22,GAAGGGACATGGACCGGTTTTCCCGGTAATCCGTATTTGCA (site GAAGGGACTTG),2.41
23,GAAGGTGCATGGACCGGTTTTCCCGGTAATCCGTATTTGAA (site GAAGGTGCTTT),2.08

row,Sequence,recombinant UMI read abundance (log10)
1,GAAGTCTCATGGACCGGTTTTCCCGGTAATCCGTATTTGGT (site GAAGTCTCTAC),2.53
2,GAATACACATGGACCGGTTTTCCCGGTAATCCGTATTTGCG (site GAATACACTCG),2.66
3,GAATACTCATGGACCGGTTTTCCCGGTAATCCGTATTTGGA (site GAATACTCTTC),2.53
4,GAATAGACATGGACCGGTTTTCCCGGTAATCCGTATTTGCC (site GAATAGACTGG),2.33
5,GAATAGACATGGACCGGTTTTCCCGGTAATCCGTATTTGCC (site GCATAGACTGG),1.73
6,GAATAGACATGGACCGGTTTTCCCGGTAATCCGTATTTGCC (site GGATAGACTGG),1.44
7,GAATAGACATGGACCGGTTTTCCCGGTAATCCGTATTTGCC (site GTATAGACTGG),2.39
8,GAATAGTCATGGACCGGTTTTCCCGGTAATCCGTATTTGGG (site GAATAGTCTCC),1.13
9,GAATGAACATGGACCGGTTTTCCCGGTAATCCGTATTTGGT (site GAATGAACTAC),1.55
10,GAATGGCCATGGACCGGTTTTCCCGGTAATCCGTATTTGCT (site GAATGGCCTAG),0.0235
11,GAATGGCCATGGACCGGTTTTCCCGGTAATCCGTATTTGCT (site GAATGGCCTCG),0.0255
12,GAATGGCCATGGACCGGTTTTCCCGGTAATCCGTATTTGCT (site GAATGGCCTGG),0
13,GAATGGCCATGGACCGGTTTTCCCGGTAATCCGTATTTGCT (site GAATGGCCTTG),0
14,GAATTCGCATGGACCGGTTTTCCCGGTAATCCGTATTTGCT (site GAATTCGCTAG),2.87
15,GACAAAACATGGACCGGTTTTCCCGGTAATCCGTATTTGCG (site GACAAAACTCG),1.5
16,GACAAAACATGGACCGGTTTTCCCGGTAATCCGTATTTGGC (site GACAAAACTGC),0
17,GACAAACCATGGACCGGTTTTCCCGGTAATCCGTATTTGGG (site GACAAACCTAC),0.0248
18,GACAAACCATGGACCGGTTTTCCCGGTAATCCGTATTTGGG (site GACAAACCTCC),0
19,GACAAACCATGGACCGGTTTTCCCGGTAATCCGTATTTGGG (site GACAAACCTGC),0
20,GACAAACCATGGACCGGTTTTCCCGGTAATCCGTATTTGGG (site GACAAACCTTC),0
21,GACAATCCATGGACCGGTTTTCCCGGTAATCCGTATTTGAA (site GACAATCCTTT),0.601
22,GACAATCCATGGACCGGTTTTCCCGGTAATCCGTATTTGAA (site GCCAATCCTTT),0
23,GACAATCCATGGACCGGTTTTCCCGGTAATCCGTATTTGAA (site GGCAATCCTTT),0.0165

row,Sequence,recombinant UMI read abundance (log10)
1,GACAATCCATGGACCGGTTTTCCCGGTAATCCGTATTTGAA (site GTCAATCCTTT),0.0122
2,GACACAGCATGGACCGGTTTTCCCGGTAATCCGTATTTGAC (site GACACAGCTGT),2.44
3,GACACGTCATGGACCGGTTTTCCCGGTAATCCGTATTTGCC (site GACACGTCTGG),2.45
4,GACAGCTCATGGACCGGTTTTCCCGGTAATCCGTATTTGGT (site GACAGCTCTAC),1.68
5,GACAGCTCATGGACCGGTTTTCCCGGTAATCCGTATTTGTC (site GACAGCTCTGA),1.15
6,GACCAGCCATGGACCGGTTTTCCCGGTAATCCGTATTTGTT (site GACCAGCCTAA),0
7,GACCGCTCATGGACCGGTTTTCCCGGTAATCCGTATTTGGC (site GACCGCTCTGC),2.43
8,GACCGGGCATGGACCGGTTTTCCCGGTAATCCGTATTTGAA (site GACCGGGCTTT),0.143
9,GACCGGGCATGGACCGGTTTTCCCGGTAATCCGTATTTGCG (site GACCGGGCTCG),0
10,GACCGTTCATGGACCGGTTTTCCCGGTAATCCGTATTTGCT (site GACCGTTCTAG),1.7
11,GACCTCTCATGGACCGGTTTTCCCGGTAATCCGTATTTGTA (site GACCTCTCTTA),2.09
12,GACCTTTCATGGACCGGTTTTCCCGGTAATCCGTATTTGTT (site GACCTTTCTAA),0
13,GACGACGCATGGACCGGTTTTCCCGGTAATCCGTATTTGTC (site GACGACGCTGA),2.6
14,GACGATTCATGGACCGGTTTTCCCGGTAATCCGTATTTGAT (site GACGATTCTAT),2.03
15,GACGATTCATGGACCGGTTTTCCCGGTAATCCGTATTTGTT (site GAAGATTCTAA),0.149
16,GACGATTCATGGACCGGTTTTCCCGGTAATCCGTATTTGTT (site GACGATTCTAA),2.04
17,GACGATTCATGGACCGGTTTTCCCGGTAATCCGTATTTGTT (site GAGGATTCTAA),0
18,GACGATTCATGGACCGGTTTTCCCGGTAATCCGTATTTGTT (site GATGATTCTAA),0.263
19,GACGGCCCATGGACCGGTTTTCCCGGTAATCCGTATTTGTT (site AACGGCCCTAA),0.00882
20,GACGGCCCATGGACCGGTTTTCCCGGTAATCCGTATTTGTT (site CACGGCCCTAA),0.0467
21,GACGGCCCATGGACCGGTTTTCCCGGTAATCCGTATTTGTT (site GACGGCCCTAA),0
22,GACGGCCCATGGACCGGTTTTCCCGGTAATCCGTATTTGTT (site TACGGCCCTAA),0.00762
